According to ChEMBL document CHEMBL1201862, “PubChem BioAssay data set” (2004):
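Five compound concentrations were applied to cells in 96-well plates for 48 hours; endpoints were derived by simple linear interpolation of the resulting dose-response curve. GI50 = concentration required for 50% inhibition of growth.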 The source made the active and inactive calls. Cut-off read from the data, not from the text of the source: active = GI50 up to about 1.1 µM and inactive = higher.

Tests used:
Assay in all cases: NCI tumour cell line growth inhibition, 48 h
786-0 = tested on: 786-0
A498 = tested on: A498
A549 = tested on: A549
ACHN = tested on: ACHN
CAKI-1 = tested on: CAKI-1
CCRF-CEM = tested on: CCRF-CEM
DLD-1 = tested on: DLD-1
DMS-273 = tested on: DMS-273
EKVX = tested on: EKVX
HCC 2998 = tested on: HCC 2998
HCT-116 = tested on: HCT-116
HCT-15 = tested on: HCT-15
HL-60 = tested on: HL-60
HOP-62 = tested on: HOP-62
HT-29 = tested on: HT-29
K562 = tested on: K562
KM12 = tested on: KM12
M14 = tested on: M14
M19-MEL = tested on: M19-MEL
MOLT-4 = tested on: MOLT-4
Malme-3M = tested on: Malme-3M
NCI-H23 = tested on: NCI-H23
NCI-H460 = tested on: NCI-H460
NCI-H522 = tested on: NCI-H522
OVCAR-3 = tested on: OVCAR-3
OVCAR-4 = tested on: OVCAR-4
OVCAR-5 = tested on: OVCAR-5
OVCAR-8 = tested on: OVCAR-8
RXF 393 = tested on: RXF 393
RXF 631 = tested on: RXF 631
SF-268 = tested on: SF-268
SF-295 = tested on: SF-295
SF-539 = tested on: SF-539
SK-MEL-28 = tested on: SK-MEL-28
SK-MEL-2 = tested on: SK-MEL-2
SK-MEL-5 = tested on: SK-MEL-5
SK-OV-3 = tested on: SK-OV-3
SN12C = tested on: SN12C
SNB-19 = tested on: SNB-19
SNB-75 = tested on: SNB-75
SR = tested on: SR
SW-620 = tested on: SW-620
TK-10 = tested on: TK-10
U-251 = tested on: U-251
UACC-257 = tested on: UACC-257
UACC-62 = tested on: UACC-62
UO-31 = tested on: UO-31
XF498 = tested on: XF498
COLO 205 = tested on: COLO 205
DMS-114 = tested on: DMS-114
HOP-18 = tested on: HOP-18
HOP-92 = tested on: HOP-92
IGROV-1 = tested on: IGROV-1
KM-20L2 = tested on: KM-20L2
LXFL 529 = tested on: LXFL 529
MDA-N = tested on: MDA-N
SNB-78 = tested on: SNB-78

Cc1cc(NCCCCCCNc2cc(C)nc3cc(N(C)C)ccc23)c2ccc(N(C)C)cc2n1
GI50 (786-0): 52.4 µM (inactive) | GI50 (A498): > 100 µM (inactive) | GI50 (A549): > 10 µM (inactive) | GI50 (ACHN): 99.8 µM (inactive) | GI50 (CAKI-1): 55.8 µM (inactive) | GI50 (CCRF-CEM): 22.3 µM (inactive) | GI50 (DLD-1): 39.3 µM (inactive) | GI50 (DMS-273): 3.64 µM (inactive) | GI50 (EKVX): > 100 µM (inactive) | GI50 (HCC 2998): 22.4 µM (inactive) | GI50 (HCT-116): 10.7 µM (inactive) | GI50 (HCT-15): > 100 µM | GI50 (HL-60): 3.19 µM (inactive) | GI50 (HOP-62): 54.2 µM (inactive) | GI50 (HT-29): 36.1 µM (inactive) | GI50 (K562): 3.97 µM (inactive) | GI50 (KM12): 11.8 µM (inactive) | GI50 (M14): 49.9 µM (inactive) | GI50 (M19-MEL): 27.7 µM (inactive) | GI50 (MOLT-4): 6.9 µM (inactive) | GI50 (Malme-3M): 13.2 µM (inactive) | GI50 (NCI-H23): 25.1 µM (inactive) | GI50 (NCI-H460): 13.3 µM (inactive) | GI50 (NCI-H522): 10.6 µM (inactive) | GI50 (OVCAR-3): 57.1 µM (inactive) | GI50 (OVCAR-4): 22.6 µM (inactive) | GI50 (OVCAR-5): 22.4 µM (inactive) | GI50 (OVCAR-8): 31 µM (inactive) | GI50 (RXF 393): > 100 µM (inactive) | GI50 (RXF 631): > 100 µM (inactive) | GI50 (SF-268): 57.9 µM (inactive) | GI50 (SF-295): 28.2 µM (inactive) | GI50 (SF-539): 59.6 µM (inactive) | GI50 (SK-MEL-28): 29.2 µM (inactive) | GI50 (SK-MEL-2): 32.2 µM (inactive) | GI50 (SK-MEL-5): 18.2 µM (inactive) | GI50 (SK-OV-3): 12.3 µM (inactive) | GI50 (SN12C): 6 µM (inactive) | GI50 (SNB-19): 1.67 µM (inactive) | GI50 (SNB-75): 10 µM (inactive) | GI50 (SR): 11 µM (inactive) | GI50 (SW-620): 28.6 µM (inactive) | GI50 (TK-10): > 100 µM (inactive) | GI50 (U-251): 28.2 µM (inactive) | GI50 (UACC-257): 31.6 µM (inactive) | GI50 (UACC-62): 9.2 µM (inactive) | GI50 (UO-31): 88.7 µM (inactive) | GI50 (XF498): 13.7 µM (inactive)

O=c1[nH]c2ccccc2n1C1CCN(CCCC(c2ccc(F)cc2)c2ccc(F)cc2)CC1 [PIMOZIDE]
GI50 (CCRF-CEM): 5.51 µM (inactive) | GI50 (COLO 205): 1.69 µM (inactive) | GI50 (DLD-1): 5.74 µM (inactive) | GI50 (DMS-114): 2.22 µM (inactive) | GI50 (DMS-273): 3.45 µM (inactive) | GI50 (HCC 2998): 1.9 µM (inactive) | GI50 (HCT-15): 3.1 µM | GI50 (HL-60): 2.37 µM (inactive) | GI50 (HOP-18): 15.6 µM (inactive) | GI50 (HOP-62): 10.7 µM (inactive) | GI50 (HOP-92): 3.9 µM (inactive) | GI50 (HT-29): 2.55 µM (inactive) | GI50 (IGROV-1): 13.9 µM (inactive) | GI50 (K562): 2.88 µM (inactive) | GI50 (KM-20L2): 2.01 µM (inactive) | GI50 (LXFL 529): 3.73 µM (inactive) | GI50 (M14): 2.7 µM (inactive) | GI50 (M19-MEL): 3.81 µM (inactive) | GI50 (MDA-N): 9.77 µM (inactive) | GI50 (MOLT-4): 3.67 µM (inactive) | GI50 (Malme-3M): 2.05 µM (inactive) | GI50 (NCI-H522): 2.81 µM (inactive) | GI50 (OVCAR-4): 8.59 µM (inactive) | GI50 (OVCAR-5): 8 µM (inactive) | GI50 (SF-268): 12.1 µM (inactive) | GI50 (SF-295): 4.02 µM (inactive) | GI50 (SK-MEL-28): 2.15 µM (inactive) | GI50 (SK-OV-3): 12.8 µM (inactive) | GI50 (SN12C): 12.2 µM (inactive) | GI50 (SNB-19): 14.5 µM (inactive) | GI50 (SNB-75): 10.8 µM (inactive) | GI50 (SNB-78): 15.1 µM (inactive) | GI50 (SR): 2.5 µM (inactive) | GI50 (XF498): 4.17 µM (inactive)
